# Target: T1, human LPA3 receptor (Homo sapiens, UniProt Q9UBY5)
# T1 construct: expressed in transfected cells; host or cells: CHO cells (Chinese hamster ovary) with the LPA1 receptor knocked down
# T1 sequence (Q9UBY5 1-353): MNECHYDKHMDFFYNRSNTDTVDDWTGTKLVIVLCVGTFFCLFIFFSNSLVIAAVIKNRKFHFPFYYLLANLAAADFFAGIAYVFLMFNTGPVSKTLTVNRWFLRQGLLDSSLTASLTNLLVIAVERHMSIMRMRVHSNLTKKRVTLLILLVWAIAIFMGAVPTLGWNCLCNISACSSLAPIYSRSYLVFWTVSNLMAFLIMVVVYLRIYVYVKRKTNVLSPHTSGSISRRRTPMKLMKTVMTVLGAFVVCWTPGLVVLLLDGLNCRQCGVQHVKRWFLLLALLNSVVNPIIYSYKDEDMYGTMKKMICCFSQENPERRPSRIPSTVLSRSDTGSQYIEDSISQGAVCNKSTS
# Test: LPA3 agonist activity measurement (Method A): intracellular Ca2+ in RH7777 cells stably expressing human LPA3 receptor
# Type: cell-based
# Conditions: RH7777 cells expressing human LPA3, Ca2+ fluorescence
# Method: (Method A) Using RH7777 cells derived from rat hepatocellular carcinoma as a host, each cell line (Multispan, Inc., Cat No. C1048-6, C1050-6, and C1053-6) stably expressing a human LPA3 receptor was subjected to an experiment. The cells cultured until reaching subconfluence were detached, and suspended in a medium (DMEM containing 10% FBS, 1% penicillin/streptomycin, 30 μg/mL puromycin) so as to be 4×10^5 cells/mL. The cells were seeded in a 96 well optical bottom plate (Asahi Techno Glass, MT4940-010) at 100 μL/well, and cultured under conditions of 5% CO2 and 37° C. for 1 day.
# On the day of measurement, the medium was removed, and a medium containing 0.2% FBS was added at 100 μL/well, and cultured for 4 to 6 hours. Thereafter, the medium was removed, and an assay buffer (Hank's Balanced Salt Solution containing 0.02 mol/L HEPES, 2.5 mmol/L probenecid, 0.1% BSA, 5 μmol/L Fluo-4, Quenching Buffer, Pluronic F-127) was added at 100 μL/well, and the cells were incubated with 5% CO2 at 37° C. for about 1 hour. The plate was set in a fluorescent drug screening system (Hamamatsu Photonics K.K.), and after 30 seconds from the start of measurement, 25 μL of a cell-added solution containing only a test substance or dimethyl sulfoxide (hereinafter, it is abbreviated as DMSO.) was added thereto. After 3 minutes, 25 μL of a ligand was further added thereto, and then measurement was performed for 4 minutes. A fluorescence wavelength of 540 nm at an excitation wavelength of 480 nm was measured, and intracellular Ca^2+ concentration was indicated by fluorescence intensity change.
# (§1) Agonist action of the test substance was calculated as a ratio increase degree after addition of the test substance when a ratio increase value indicated by cells to which a cell-added solution containing only DMSO was added at the time of ligand addition was set to 100%. Further, EC50 value was calculated as a 50% action concentration using Microsoft Excel, from an activity (%) at concentrations before and after agonist activity exceeds 50%.
row,EC50 [nM],Structure (SMILES)
1,1000,"Cc1ccc(Cn2c(C(=O)O)c(CNC3CC3)c3ccccc32)cc1 [Example 2(18), 3-[(Cyclopropylamino)methyl]-1-(4-methylbenzyl)-1H-indole-2-carboxylic acid]"
2,60,"Cc1ccc(Cn2c(C(=O)O)c(CNC3CCC3)c3ccccc32)cc1 [Example 2, 3-[(Cyclobutylamino)methyl]-1-(4-methylbenzyl)-1H-indole-2-carboxylic acid]"

# Continued, compound first:
row,Structure (SMILES),EC50 [nM]
1,"O=C(O)c1c(CNC2CCC2)c2ccccc2n1CC1CC1(F)F (centres unmarked) [Example 1(3), 3-[(Cyclobutylamino)methyl]-1-[(2,2-difluorocyclopropyl)methyl]-1H-indole-2-carboxylic acid]",500
2,"CCn1c(C(=O)O)c(CNC2CCC2)c2ccccc21 [Example 1(4), 3-[(Cyclobutylamino)methyl]-1-ethyl-1H-indole-2-carboxylic acid]",600
3,"Cc1ccc(Cn2c(Br)c(C)c(CNC3CCC3)c2C(=O)O)cc1 [Example 2(34), 5-Bromo-3-[(cyclobutylamino)methyl]-4-methyl-1-(4-methylbenzyl)-1H-pyrrole-2-carboxylic acid]",40
4,"Cc1ccc(Cn2c(C(=O)O)c(C(C)NC3CCC3)c3ccccc32)cc1 (centres unmarked) [Example 5, 3-[1-(Cyclobutylamino)ethyl]-1-(4-methylbenzyl)-1H-indole-2-carboxylic acid]",100
5,"Cc1ccc(Cn2c(C)c(-c3cccc(F)c3)c(CNC3CCC3)c2C(=O)O)cc1 [Example 6(2), 3-[(Cyclobutylamino)methyl]-4-(3-fluorophenyl)-5-methyl-1-(4-methylbenzyl)-1H-pyrrole-2-carboxylic acid]",900
6,"C=Cc1c(CNC2CCC2)c(C(=O)O)n(Cc2ccc(C)cc2)c1C [Example 6(7), 3-[(Cyclobutylamino)methyl]-5-methyl-1-(4-methylbenzyl)-4-vinyl-1H-pyrrole-2-carboxylic acid]",1000
7,"Cc1ccc(Cn2c3c(c(CNC4CCC4)c2C(=O)O)CCCC3)cc1 [Example 7, 3-[(Cyclobutylamino)methyl]-1-(4-methylbenzyl)-4,5,6,7-tetrahydro-1H-indole-2-carboxylic acid]",100

# Target: T1, human LPA3 receptor
# Test: LPA3 agonist activity measurement (Method B): intracellular Ca2+ in LPA1-knockdown CHO cells stably expressing human LPA3 receptor
# Type: cell-based
# Conditions: LPA1-knockdown CHO cells expressing human LPA3, Ca2+ fluorescence
# Excerpt: (Method B) A cell line stably expressing a human LPA3 receptor using a cell obtained by knocking down an LPA1 receptor of CHO cells of Chinese hamster ovary as a host was subjected to an experiment. The cryopreserved cells were thawed and suspended in loading buffer (Hank's Balanced Salt Solution containing 0.02 mol/L HEPES, 2.5 mmol/L probenecid, 0.1% BSA, 5 μmol/L Fluo-4, Quenching Buffer, Pluronic F-127) so as to be 1×10^5 cells/mL. The plate was allowed to stand under conditions of 5% CO2 and 37° C. for 1 hour, then the buffer was replaced with an assay buffer (Hank's Balanced Salt Solution containing 0.02 mol/L HEPES, 2.5 mmol/L probenecid, 0.1% BSA), and the cells were seeded in a 384 well optical bottom plate (384 Well microplate, low volume, Corning, 3540) at 10 μL/well.
# A plate was set in a fluorescent drug screening system (Hamamatsu Photonics K.K.), and after 15 seconds from the start of the measurement, 10 μL of a positive control, the test substance or the cell-added solution containing only DMSO was added thereto, and the measurement was performed for 1 minute. A fluorescence wavelength of 540 nm at an excitation wavelength of 480 nm was measured, and intracellular […] concentration was indicated by fluorescence intensity change.
# as §1, with “the positive control or the” for “cells to which a”, “containing” for “containing only DMSO”, “added” for “added at the time of ligand addition”
row,EC50 [nM],Structure (SMILES)
1,50,"O=C(O)c1c(CNC2CCC2)c2ccccc2n1Cc1ccccc1Cl [Example 2(6), 1-(2-Chlorobenzyl)-3-[(cyclobutylamino)methyl]-1H-indole-2-carboxylic acid]"
2,40,"O=C(O)c1c(CNC2CCC2)c2ccccc2n1Cc1cccc(C2CC2)c1 [Example 2(41), 3-[(Cyclobutylamino)methyl]-1-(3-cyclopropylbenzyl)-1H-indole-2-carboxylic acid]"
3,100,"O=C(O)c1c(CNC2CCC2)c2ccccc2n1Cc1ccccc1OC(F)F [Example 2(53), 3-[(Cyclobutylamino)methyl]-1-[2-(difluoromethoxy)benzyl]-1H-indole-2-carboxylic acid]"
4,200,"O=C(O)c1c(CNC2CCCC2)c2ccccc2n1Cc1ccccc1Cl [Example 2(70), 1-(2-Chlorobenzyl)-3-[(cyclopentylamino)methyl]-1H-indole-2-carboxylic acid]"
5,100,"O=C(O)c1c(CNC2CC2)c2ccccc2n1Cc1ccccc1Cl [Example 2(72), 1-(2-Chlorobenzyl)-3-[(cyclopropylamino)methyl]-1H-indole-2-carboxylic acid]"
6,30,"O=C(O)c1c(CNC2CCC2)c2ccccc2n1Cc1cccs1 [Example 2(74), 3-[(Cyclobutylamino)methyl]-1-(2-thienylmethyl)-1H-indole-2-carboxylic acid]"
7,60,"CSc1ccccc1Cn1c(C(=O)O)c(CNC2CCC2)c2ccccc21 [Example 2(75), 3-[(Cyclobutylamino)methyl]-1-[2-(methylthio)benzyl]-1H-indole-2-carboxylic acid]"

# The next lines start with the compound.
row,Structure (SMILES),EC50 [nM]
1,"O=C(O)c1c(CNC2CCC2)c2ccccc2n1CC1CC1(F)F (centres unmarked) [Example 1(3), 3-[(Cyclobutylamino)methyl]-1-[(2,2-difluorocyclopropyl)methyl]-1H-indole-2-carboxylic acid]",200
2,"CCn1c(C(=O)O)c(CNC2CCC2)c2ccccc21 [Example 1(4), 3-[(Cyclobutylamino)methyl]-1-ethyl-1H-indole-2-carboxylic acid]",600
3,Cc1ccc(Cn2c(C(=O)O)c(CNC3CCC3C)c3ccccc32)cc1 (centres unmarked) [Example 2(46)],100
4,"Cc1ccc(Cn2c(C(=O)O)c(CNC3CCC3)c3cccnc32)cc1 [Example 2(49), 3-[(Cyclobutylamino)methyl]-1-(4-methylbenzyl)-1H-pyrrolo[2,3-b]pyridine-2-carboxylic acid]",100
5,"Cc1ccc(Cn2c(C(=O)O)c(CNC3CSC3)c3ccccc32)cc1 [Example 2(71), 1-(4-Methylbenzyl)-3-[(3-thiethanylamino)methyl]-1H-indole-2-carboxylic acid]",60
6,"Cc1ccc(Cn2c(C(=O)O)c(CNC3CCC3)c3cccc(C#N)c32)cc1 [Example 9(1), 7-Cyano-3-[(cyclobutylamino)methyl]-1-(4-methylbenzyl)-1H-indole-2-carboxylic acid]",200
7,"Cc1ccc(Cn2c(C(=O)NS(C)(=O)=O)c(CNC3CCC3)c3ccccc32)cc1 [Example 19, 3-[(Cyclobutylamino)methyl]-1-(4-methylbenzyl)-N-(methylsulfonyl)-1H-indole-2-carboxamide]",60

# From patent US20230014137A1, “COMPOUND HAVING LYSOPHOSPHATIDIC ACID RECEPTOR AGONIST ACTIVITY AND PHARMACEUTICAL USE THEREOF” (ONO PHARMACEUTICAL CO., LTD., priority 2019, published 2023)
